The subject of series [1] is Trypanosoma cruzi. In words: Growth inhibition of epimastigote form of Trypanosoma cruzi CL-B5 at 128 uM after 72 hrs by lacZ reporter gene assay. Type of series: functional. The settings on record: CL-B5, 72 h, read-out: GI.
Series [2] can be described thus: Growth inhibition of mouse J774 cells at 256 uM after 24 hrs by resazurin reduction assay. Type of series: cell-based. As to conditions: read-out: GI. (Alamar Blue is a resazurin reagent that responds to reducing activity.)
The test system of series [3] is Trypanosoma cruzi. In words: Growth inhibition of epimastigote form of Trypanosoma cruzi CL-B5 at 256 uM after 72 hrs by lacZ reporter gene assay. Type of series: functional. As to conditions: CL-B5, 72 h, read-out: GI. (In a reporter assay the amount or activity of a reporter protein is the signal.)
The nature of series [4]: Growth inhibition of mouse J774 cells at 128 uM after 24 hrs by resazurin reduction assay. Type of series: cell-based. The settings on record: read-out: GI.
In series [5] the test system is Trypanosoma cruzi. In words: Growth inhibition of epimastigote form of Trypanosoma cruzi CL-B5 at 64 uM after 72 hrs by lacZ reporter gene assay. Type of series: functional. The settings on record: CL-B5, 72 h, read-out: GI.
A short description of series [6]: Growth inhibition of mouse J774 cells at 64 uM after 24 hrs by resazurin reduction assay. Type of series: cell-based. The settings on record: read-out: GI.
The test system of series [7] is Trypanosoma cruzi. In words: Growth inhibition of epimastigote form of Trypanosoma cruzi CL-B5 at 32 uM after 72 hrs by lacZ reporter gene assay. The settings on record: CL-B5, 72 h, read-out: GI. Type of series: functional.
A short description of series [8]: Growth inhibition of mouse J774 cells at 32 uM after 24 hrs by resazurin reduction assay. Type of series: cell-based. The settings on record: read-out: GI.
Series [9] concerns Trypanosoma cruzi. In words: Growth inhibition of epimastigote form of Trypanosoma cruzi CL-B5 at 16 uM after 72 hrs by lacZ reporter gene assay. Type of series: functional. As to conditions: CL-B5, 72 h, read-out: GI.
Series [10] in a line: Growth inhibition of mouse J774 cells at 16 uM after 24 hrs by resazurin reduction assay. The class given is cell-based. As to conditions: read-out: GI.
Series [11] relates to Trypanosoma cruzi. In words: Growth inhibition of epimastigote form of Trypanosoma cruzi CL-B5 at 8 uM after 72 hrs by lacZ reporter gene assay. Type of series: functional. The settings on record: CL-B5, 72 h, read-out: GI.
Series [12] is described as follows: Growth inhibition of mouse J774 cells at 8 uM after 24 hrs by resazurin reduction assay. The class given is cell-based. As to conditions: read-out: GI.
The test system of series [13] is Trypanosoma cruzi. In words: Growth inhibition of epimastigote form of Trypanosoma cruzi CL-B5 at 5 uM after 72 hrs by lacZ reporter gene assay. Type of series: functional. The settings on record: CL-B5, 72 h, read-out: GI.
Series [14] in a line: Growth inhibition of mouse J774 cells at 5 uM after 24 hrs by resazurin reduction assay. The class given is cell-based. The settings on record: read-out: GI.
In series [15] the test system is Trypanosoma cruzi. In words: Growth inhibition of epimastigote form of Trypanosoma cruzi CL-B5 at 2.5 uM after 72 hrs by lacZ reporter gene assay. As to conditions: CL-B5, 72 h, read-out: GI. The class given is functional.
A short description of series [16]: Growth inhibition of mouse J774 cells at 2.5 uM after 24 hrs by resazurin reduction assay. The class given is cell-based. The settings on record: read-out: GI.
Series [17] has as its system Trypanosoma cruzi. In words: Growth inhibition of epimastigote form of Trypanosoma cruzi CL-B5 at 1.25 uM after 72 hrs by lacZ reporter gene assay. The class given is functional. As to conditions: CL-B5, 72 h, read-out: GI.
A short description of series [18]: Growth inhibition of mouse J774 cells at 1.25 uM after 24 hrs by resazurin reduction assay. Type of series: cell-based. As to conditions: read-out: GI.
Series [19] deals with Trypanosoma cruzi. In words: Growth inhibition of epimastigote form of Trypanosoma cruzi CL-B5 at 0.625 uM after 72 hrs by lacZ reporter gene assay. The class given is functional. As to conditions: CL-B5, 72 h, read-out: GI.
Series [20] is described as follows: Growth inhibition of mouse J774 cells at 0.625 uM after 24 hrs by resazurin reduction assay. The class given is cell-based. As to conditions: read-out: GI.
Series [21] concerns Trypanosoma cruzi. In words: Growth inhibition of epimastigote form of Trypanosoma cruzi CL-B5 after 72 hrs by lacZ reporter gene assay. The settings on record: CL-B5, 72 h. Type of series: functional, organism-based.
The nature of series [22]: Growth inhibition of mouse J774 cells at 4 uM after 24 hrs by resazurin reduction assay. Type of series: cell-based. The settings on record: read-out: GI.
Series [23] has as its system Trypanosoma cruzi. In words: Growth inhibition of epimastigote form of Trypanosoma cruzi CL-B5 at 2 uM after 72 hrs by lacZ reporter gene assay. Type of series: functional. The settings on record: CL-B5, 72 h, read-out: GI.
Series [24] is described as follows: Growth inhibition of mouse J774 cells at 2 uM after 24 hrs by resazurin reduction assay. Type of series: cell-based. The settings on record: read-out: GI.
The subject of series [25] is Trypanosoma cruzi. In words: Growth inhibition of epimastigote form of Trypanosoma cruzi CL-B5 at 1 uM after 72 hrs by lacZ reporter gene assay. Type of series: functional. The settings on record: CL-B5, 72 h, read-out: GI.
Series [26] is described as follows: Growth inhibition of mouse J774 cells at 1 uM after 24 hrs by resazurin reduction assay. The class given is cell-based. As to conditions: read-out: GI.
The test system of series [27] is Trypanosoma cruzi. In words: Growth inhibition of epimastigote form of Trypanosoma cruzi CL-B5 at 4 uM after 72 hrs by lacZ reporter gene assay. The class given is functional. As to conditions: CL-B5, 72 h, read-out: GI.

Structures are written as SMILES.

As usually defined, the IC50 is the point on the concentration scale where inhibition reaches its midpoint. A lower IC50 goes with higher potency. Regarding `CCCn1c2ccc([N+](=O)[O-])cc2c(=O)n1Cc1ccccc1`, the inhibition of growth at 128 µM in [1] came to 92.8%. In addition, in series [2], the inhibition at 24 h, 256 µM was found to be 0%. The inhibition of growth at 256 µM in series [3] is 94.8%. Moreover, the inhibition at 24 h, 128 µM in [4] amounted to 0%. Further, the inhibition of growth at 64 µM in [5] came to 92.7%. In addition, in [6], the inhibition at 24 h, 64 µM was 0%. Moreover, the inhibition of growth at 32 µM in [7] worked out at 100%. Besides, the inhibition at 24 h, 32 µM in series [8] was 0%. Also, in series [9], the inhibition of growth at 16 µM was determined as 100%. The inhibition at 24 h, 16 µM in series [10] came to 0%. In [11], the inhibition of growth at 8 µM was determined as 100%. Further, the inhibition at 24 h, 8 µM in series [12] was found to be 0%. Further, in [13], the inhibition of growth at 5 µM came to 61.5%. Moreover, in series [14], the inhibition at 24 h, 5 µM came out at 0.64%. Also, the inhibition of growth at 2.5 µM in series [15] was found to be 59.8%. Further, the inhibition at 24 h, 2.5 µM in series [16] was determined as 0.85%. In addition, in series [17], the inhibition of growth at 1.25 µM is 59.5%. Moreover, in series [18], the inhibition at 24 h, 1.25 µM is 0.14%. The inhibition of growth at 0.625 µM in series [19] was found to be 56.2%. For the same compound, the inhibition at 24 h, 0.625 µM in [20] stood at 4.18%. Further, in series [21], the concentration for half-maximal inhibition (IC50) was determined as 0.93 µM.
For `CCCCn1c2ccc([N+](=O)[O-])cc2c(=O)n1Cc1ccccc1`, the inhibition of growth at 128 µM in series [1] stood at 88.3%. The inhibition at 24 h, 256 µM in [2] was determined as 81.6%. The inhibition of growth at 256 µM in series [3] stood at 84%. Further, the inhibition at 24 h, 128 µM in series [4] stood at 67.5%. Also, in series [5], the inhibition of growth at 64 µM stood at 82.8%. For the same compound, the inhibition at 24 h, 64 µM in series [6] was 33.3%. For the same compound, the inhibition of growth at 32 µM in series [7] was 100%. The inhibition at 24 h, 32 µM in series [8] stood at 27.1%. Besides, the inhibition of growth at 16 µM in [9] amounted to 100%. Also, the inhibition at 24 h, 16 µM in series [10] was found to be 7.92%. In addition, the inhibition of growth at 8 µM in series [11] was determined as 93%. For the same compound, the inhibition at 24 h, 8 µM in series [12] was determined as 7.65%. In [13], the inhibition of growth at 5 µM worked out at 61.7%. Further, the inhibition at 24 h, 5 µM in series [14] worked out at 2.36%. In addition, the inhibition of growth at 2.5 µM in series [15] amounted to 58.2%. Moreover, the inhibition at 24 h, 2.5 µM in series [16] was found to be 1.92%. In [17], the inhibition of growth at 1.25 µM is 55.9%. Moreover, the inhibition at 24 h, 1.25 µM in series [18] turned out to be 5.37%. Also, the inhibition of growth at 0.625 µM in series [19] came to 49.7%. Further, in [20], the inhibition at 24 h, 0.625 µM is 0.14%. The same compound displayed an IC50 in series [21] of 1.17 µM.
For the compound `O=C(Cn1ccnc1[N+](=O)[O-])NCc1ccccc1` [BENZNIDAZOLE], in [1], the inhibition of growth at 128 µM is 79.8%. Also, the inhibition at 24 h, 256 µM in series [2] stood at 13%. For the same compound, the inhibition of growth at 256 µM in series [3] is 82%. Also, the inhibition at 24 h, 128 µM in series [4] came out at 14.8%. Also, in [5], the inhibition of growth at 64 µM was 71%. In addition, the inhibition at 24 h, 64 µM in series [6] worked out at 13%. The same compound had an IC50 in [21] of 27.3 µM.
Turning to `CC1CS(=O)(=O)CCN1/N=C/c1ccc([N+](=O)[O-])o1` (configuration not stated) [NIFURTIMOX], the inhibition of growth at 128 µM in series [1] is 97.1%. The inhibition at 24 h, 256 µM in [2] turned out to be 25%. In addition, the inhibition of growth at 256 µM in [3] stood at 100%. For the same compound, the inhibition at 24 h, 128 µM in [4] turned out to be 5%. The inhibition of growth at 64 µM in series [5] was found to be 91.6%. Also, the inhibition at 24 h, 64 µM in series [6] stood at 0%. In series [21], this compound showed an IC50 of 3.61 µM.
Consider `CC(C)n1c2ccc([N+](=O)[O-])cc2c(=O)n1Cc1ccccc1`, for which the inhibition of growth at 128 µM in [1] is 88.3%. Moreover, the inhibition at 24 h, 256 µM in series [2] was 0%. Also, in series [3], the inhibition of growth at 256 µM was found to be 90.4%. Further, the inhibition at 24 h, 128 µM in series [4] turned out to be 0%. Moreover, in [5], the inhibition of growth at 64 µM was determined as 87.6%. Moreover, in [6], the inhibition at 24 h, 64 µM worked out at 14.5%. The inhibition of growth at 32 µM in [7] worked out at 100%. Moreover, the inhibition at 24 h, 32 µM in series [8] is 0%. Besides, the inhibition of growth at 16 µM in [9] was 97.6%. The inhibition at 24 h, 16 µM in [10] worked out at 0%. Also, the inhibition of growth at 8 µM in series [11] was 80.3%. For the same compound, the inhibition at 24 h, 8 µM in series [12] turned out to be 10.3%. The same compound displayed an IC50 in [21] of 2.39 µM. Further, in series [22], the inhibition at 24 h, 4 µM is 65.2%. Further, the inhibition of growth at 2 µM in [23] worked out at 37.4%. In addition, the inhibition at 24 h, 2 µM in series [24] came out at 8.76%. Also, the inhibition of growth at 1 µM in series [25] stood at 28%. In addition, the inhibition at 24 h, 1 µM in [26] worked out at 5.87%. The inhibition of growth at 4 µM in [27] was 4.11%.
As to `CCCCCOc1c2cc([N+](=O)[O-])ccc2nn1Cc1ccccc1`, the inhibition of growth at 128 µM in series [1] amounted to 78.8%. Besides, the inhibition at 24 h, 256 µM in series [2] amounted to 0%. In addition, the inhibition of growth at 256 µM in [3] stood at 79.3%. The inhibition at 24 h, 128 µM in [4] is 0%. Moreover, the inhibition of growth at 64 µM in series [5] was 53.4%. In addition, the inhibition at 24 h, 64 µM in series [6] was 0%.
As for `Cn1nc2ccc([N+](=O)[O-])cc2c1OCc1ccccc1`, the inhibition of growth at 128 µM in series [1] is 56.1%. The inhibition at 24 h, 256 µM in series [2] is 0%. Besides, the inhibition of growth at 256 µM in series [3] was determined as 65.5%. Moreover, the inhibition at 24 h, 128 µM in series [4] worked out at 1.39%. In addition, the inhibition of growth at 64 µM in series [5] is 36.7%. For the same compound, the inhibition at 24 h, 64 µM in series [6] turned out to be 21.5%.

The record behind these values is ChEMBL document CHEMBL2150935, “Synthesis, biological evaluation and chemometric analysis of indazole derivatives. 1,2-Disubstituted 5-nitroindazolinones, new prototypes of antichagasic drug” (Eur J Med Chem, 2012).
